This is an account of results in article PMC6017603, “Speeding Up the Identification of Cystic Fibrosis Transmembrane Conductance Regulator-Targeted Drugs: An Approach Based on Bioinformatics Strategies and Surface Plasmon Resonance” (Molecules : A Journal of Synthetic Chemistry and Natural …, 2018).

The Kd is a measure of binding affinity in units of concentration. Low readings indicate tighter binding, high ones weaker binding. One may read the inhibition as how much of the control response was suppressed.

Test [1] addresses T1, ΔF508-NBD1/K8 interaction (Mus musculus, UniProt P26361, DEL508-508).
T1 construct: Murine WT NBD1 and ΔF508-NBD1 were obtained from CFTR Folding Consortium; purchased ΔF508-NBD1: CFTR Folding Consortium (obtained); K8: Pro-Spec-Tany TechnoGene Ltd
Put plainly: SPR competition assay: ΔF508-NBD1 binding to immobilized K8 in the presence of compounds. Further details: species or system murine. The note with it: ΔF508-NBD1 600 nM, compound 500 μM; for ΔF508-NBD1 bound to immobilized K8 at equilibrium in the presence of compound: 5% DMSO, ΔF508-NBD1 alone 35 RU. On the procedure: K8 was used since, as a representative ΔF508-CFTR chaperones, has been repeatedly used for SPR studies and its binding site in ΔF508-CFTR has been mapped. To perform competition assays for the binding to ΔF508-NBD1 between the various compounds and K8, the latter was resuspended at 20 µg/mL in 10 mM sodium acetate pH 4.0 and allowed to react with the first flow cell of a CM5 sensor chip pre-activated with 50 μL of 0.2 M EDC and 0.05 M NHS and deactivated by injection of HCl–ethanolamine. This procedure led to the immobilization of 7800 RU of the protein, (equal to approximately 146 fmol/mm^2). Similar results were obtained for the injection of BSA (10 μg/mL) onto the second flow cell of each sensor chip, that was then used as a negative control and for blank subtraction. ΔF508-NBD1 (at 600 nM) in the absence or in the presence of the various compounds (all at 500 μM) in 0.05% surfactant P20 and 5% DMSO, pH 7.4, was injected over the K8 or BSA surfaces for 90 s at 10 μL/min, 25 °C and then washed until dissociation was observed.

For test [2], the target named is T2, K8/ΔF508-NBD1 interaction (Mus musculus, UniProt P26361, DEL508-508).
T2 construct: Murine WT NBD1 and ΔF508-NBD1 were obtained from CFTR Folding Consortium; purchased ΔF508-NBD1: CFTR Folding Consortium (obtained); K8: Pro-Spec-Tany TechnoGene Ltd
T2 sequence (P26361 with tags, fused parts or gaps DEL508-508 limits assumed): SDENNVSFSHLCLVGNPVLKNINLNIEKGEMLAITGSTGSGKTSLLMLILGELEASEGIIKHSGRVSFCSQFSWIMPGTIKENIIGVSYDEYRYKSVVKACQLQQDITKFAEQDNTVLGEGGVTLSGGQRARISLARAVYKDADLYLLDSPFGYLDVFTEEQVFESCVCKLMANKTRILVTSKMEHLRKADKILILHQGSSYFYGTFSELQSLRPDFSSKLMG
Put plainly: SPR injection of compounds onto K8-saturated ΔF508-NBD1 surface. Format: binding, murine. The note with it: compounds at 150 μM; K8 1 µM saturating. On the procedure:
In a further series of experiments, a saturating amount of K8 (1 µM) was injected on the ΔF508-NBD1 surface and allowed to reach an equilibrium binding. Then, the various compounds of the data-set (150 µM) were injected and their capacity to affect the binding of K8 to ΔF508-NBD1 evaluated.

Another test deals with T3, ΔF508-NBD1 (Mus musculus, UniProt P26361, DEL508-508).
T3 construct: Murine WT NBD1 and ΔF508-NBD1 were obtained from CFTR Folding Consortium; purchased CFTR Folding Consortium (obtained, not a commercial vendor)
T3 sequence (P26361 with tags, fused parts or gaps DEL508-508 limits assumed): as above
Put plainly: SPR direct binding to sensor chip-immobilized ΔF508-NBD1. The arrangement: species or system murine. The note with it: for Kd / RU of ligand bound to ΔF508-NBD1 at equilibrium (maximal RU): SPR; for Kd: Scatchard's plot analysis of equilibrium binding data, mean ± S.D. of two-three analyses, PBS, 0.05% P20, 5% DMSO, pH 7.4, 25 °C; for RU of ligand bound to ΔF508-NBD1 at equilibrium (maximal RU): mean ± s.d. of two-three separate analyses; for binding to ΔF508-NBD1 (SPR): increasing concentrations injected over immobilized ΔF508-NBD1. On the procedure:
SPR measurements were performed on a BIAcore X-100 instrument (GE-Healthcare, Milwaukee, WI, USA), using research-grade CM5 carboxyl-methyl-dextran–coated sensor chips (GE-Healthcare). The murine ΔF508-NBD1 was resuspended at 20 µg/mL in 10 mM sodium acetate pH 4.0 and allowed to react with the first flow cell of a CM5 sensor chip pre-activated with 50 μL of 0.2 M EDC and 0.05 M NHS and deactivated by injection of HCl–ethanolamine. This procedure led to the immobilization of 11,000 RU, equal to approximately 400 fmol/mm^2 of protein. Similar results were obtained for the injection of BSA (20 µg/mL) onto the second flow cell of each sensor chip, used as a negative control and for blank subtraction. The appropriate immobilization of ΔF508-NBD1 was checked by injecting increasing concentrations of K8 in PBS, 0.05% surfactant P20 and 5% DMSO, pH 7.4 over the sensor chip for 90 s at 10 μL/min, 25 °C and then washed until dissociation was observed. The inclusion of 5% DMSO in the running buffer (not necessary for protein-protein interaction analysis) and the short association time were chosen to validate ΔF508-NBD1 binding availability in the experimental conditions used for the subsequent analysis of the compounds (see below).
For the evaluation of their capacity to directly bind to ΔF508-NBD1, increasing concentrations of the various compounds of the data-set were resuspended in PBS, 0.05% surfactant P20 and 5% DMSO, pH 7.4, injected over ΔF508-NBD1 or BSA surfaces for 90 s at 10 μL/min, 25 °C and then washed until dissociation was observed. Steady state analysis were performed by fitting the proper form of Scatchard’s equation for the plot of the bound RU at equilibrium versus the compound concentration in solution. When saturation binding was reached, Kd values were calculated. In the case no saturation could be reached due the limited solubility of the compound under test, the software provided a Kd value expected on the bases of the curve’s trend.

In the next test the test system is NBD1. The settings on record: cited from earlier work.

T1 sequence (P26361 with tags, fused parts or gaps DEL508-508 limits assumed): as above

As to `Cc1ccc(NC(=O)C2(c3ccc4c(c3)OC(F)(F)O4)CC2)nc1-c1cccc(C(=O)O)c1` [VX809, Lumacaftor, reference compound], the “ΔF508-NBD1 bound to immobilized K8 at equilibrium in the presence of compound” value in test [1] was found to be 68 RU. Further, the “effect of compound injection on K8-saturated ΔF508-NBD1 surface” value (“effect … on K8-saturated ΔF508-NBD1 surface” below) in test [2] was “increase of bound RU”. In addition, at ΔF508-NBD1, binding was characterised by a dissociation constant (Kd) of 24.2 ± 6.2 µM and the “RU of ligand bound to ΔF508-NBD1 at equilibrium (maximal RU)” value (from here on “RU of ligand bound to ΔF508-NBD1”) came to 163.7 ± 23.7 RU.

Turning to `CSc1cccc(Nc2nc(-c3coc4ccccc34)cs2)c1` [Compound 7], on ΔF508-NBD1, the “RU of ligand bound to ΔF508-NBD1” value lay in the range of 0 to 4 RU and the “binding to ΔF508-NBD1 (SPR)” value is reported as “do not bind”.

Take `CSc1cccc(Nc2nc(-c3ccc(Br)cc3)cs2)c1` [Compound 4]: in test [1], the inhibition at 500 µM was 50%. The “effect … on K8-saturated ΔF508-NBD1 surface” value in test [2] is “inability of compounds 4 and 6 to alter the binding of K8”. Further, on ΔF508-NBD1, the Kd is 99.3 ± 14.5 µM and the “RU of ligand bound to ΔF508-NBD1” value was found to be 32.0 ± 4.2 RU.

Consider `CSc1cccc(Nc2nc(-c3ccc4[nH]c(=O)oc4c3)cs2)c1` [Compound 6], for which the “effect on the ΔF508-NBD1/K8 interaction” value in test [1] is listed as “ineffective”. Also, the “effect … on K8-saturated ΔF508-NBD1 surface” value in test [2] is “inability of compounds 4 and 6 to alter the binding of K8”. Moreover, at ΔF508-NBD1, binding was put at a Kd of 198 ± 4.5 µM and the “RU of ligand bound to ΔF508-NBD1” value is on record as 114.0 ± 5.6 RU.

For the molecule `CC(C)(C)c1cc(C(C)(C)C)c(NC(=O)c2c[nH]c3ccccc3c2=O)cc1O` [VX770, Ivacaftor, reference compound], the “binding to ΔF508-NBD1 (SPR)” value at ΔF508-NBD1 is listed as “do not bind”. The “binding to NBD1” value with NBD1 is “does not bind to NBD1”.

As to `CSc1cccc(Nc2nc(-c3cccc(Cl)c3)cs2)c1` [Compound 5], the “ΔF508-NBD1 bound to immobilized K8 at equilibrium in the presence of compound” value in test [1] is listed as 45 RU. For the same molecule, the “effect … on K8-saturated ΔF508-NBD1 surface” value in test [2] is on record as “increase of bound RU”. On ΔF508-NBD1, the Kd turned out to be 40.3 ± 2.5 µM and the “RU of ligand bound to ΔF508-NBD1” value was 13.0 ± 1.4 RU.

As to `COc1ccc(Cl)cc1Nc1nc(-c2sc(NC(=O)c3ccccc3)nc2C)cs1` [C4a, reference compound], on ΔF508-NBD1, the “binding to ΔF508-NBD1 (SPR)” value was “do not bind”. Besides, the “binding to NBD1” value in the test with NBD1 was “does not bind to NBD1”.

B1: K8: keratin 8, known CFTR chaperone, purchased recombinant protein (protein, UniProt P05787 1-483, looked up)
Keratin, type II cytoskeletal …: MSIRVTQKSYKVSTSGPRAFSSRSYTSGPGSRISSSSFSRVGSSNFRGGLGGGYGGASGMGGITAVTVNQSLLSPLVLEVDPNIQAVRTQEKEQIKTLNNKFASFIDKVRFLEQQNKMLETKWSLLQQQKTARSNMDNMFESYINNLRRQLETLGQEKLKLEAELGNMQGLVEDFKNKYEDEINKRTEMENEFVLIKKDVDEAYMNKVELESRLEGLTDEINFLRQLYEEEIRELQSQISDTSVVLSMDNSRSLDMDSIIAEVKAQYEDIANRSRAEAESMYQIKYEELQSLAGKHGDDLRRTKTEISEMNRNISRLQAEIEGLKGQRASLEAAIADAEQRGELAIKDANAKLSELEAALQRAKQDMARQLREYQELMNVKLALDIEIATYRKLLEGEESRLESGMQNMSIHTKTTSGYAGGLSSAYGGLTSPGLSYSLGSSFGSGAGSSSFSRTSSSRAVVVKKIETRDGKLVSESSDVLPK
For B1, the “binding of K8 to immobilized ΔF508-NBD1” value with ΔF508-NBD1 (K8 600 nM, BSA surface as negative control) was “specifically binds”.
